Results as given in US7816310B2, “Increased moisturization efficacy using hydroxyalkylurea and ammonium lactate” (Akzo Nobel N.V., priority 2003, dated 2010).

Tested on: volar forearm of panellists with dry skin
Experiment: Skin Moisturization (Hydration), Corneometer CM 825
Format: in vivo
Conditions: 15% active, baseline 46.75
Protocol: Skin Moisturization (Hydration). Aqueous solutions (along with formulated lotions) were applied to the volar forearm of panellists with dry skin. Solutions tested contained between 2.5 and 15% active levels of Hydroxyalkylurea and various moisturizing agents. The various individual moisturizing agents were also used in combination with Hydroxyalkylurea and the relative moisture contents in the skin were compared. Moisture levels were measured using a Corneometer® CM 825 (available from CK Industries) prior to and at various time intervals after application of forty microliters of each sample (Temperature ˜21° C., Relative Humidity ˜35%).

SMILES: NC(=O)NCCO [HAU, N-2-hydroxyethylurea]
- Relative Skin Moisture Content (5 min after application): 56.56
- Relative Skin Moisture Content (30 min after application): 60.00
- Relative Skin Moisture Content (1 hr after application): 62.95
- Relative Skin Moisture Content (2 hr after application): 62.00
